Drawing on patent US7419984B2, “Pyrimidines and uses thereof” (Cell Therapeutics, Inc., priority 2002, dated 2008), this text covers IC50 for 38 compounds.

The structures appear in SMILES notation.

Usually IC50 stands for the concentration needed to halve the response being measured.

The test addresses T1, human LPAAT-β (Homo sapiens, UniProt O15120).
T1 construct: the full-length human LPAAT-β cDNA was amplified by PCR; poly-histidine tag (N); made in house; host or cells: Sf9 insect cells (baculovirus, pFastBac HTc); the membrane fraction was used as the enzyme
T1 sequence (O15120 24-278): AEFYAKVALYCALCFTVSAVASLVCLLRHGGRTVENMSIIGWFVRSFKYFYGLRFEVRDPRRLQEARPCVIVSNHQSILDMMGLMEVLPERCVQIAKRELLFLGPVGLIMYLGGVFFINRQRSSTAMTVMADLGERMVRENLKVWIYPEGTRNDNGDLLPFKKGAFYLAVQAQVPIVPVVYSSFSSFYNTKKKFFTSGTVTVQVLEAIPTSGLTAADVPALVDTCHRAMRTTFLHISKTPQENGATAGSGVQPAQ
Kind of test: LPAAT-β cell-free assay. In kind it is biochemical. Conditions: Sf9 cell membrane overexpressing recombinant LPAAT-β. Put shortly:
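Membranes from Sf9 cells expressing His/myc-tagged full-length human LPAAT-β were used in HEPES-saline pH 7.5 with 1 mg/ml BSA. Compound was added from a 200 μM DMSO stock, and reaction with 18:1-CoA and sn-1-18:1 lysoPA (1 mM stocks) ran 25 min at RT. Released CoA was detected with DTNB at 405 nm; a radiometric variant used 200 μM [14C]18:1-CoA and 200 μM lysoPA.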
As to `CCOc1ccc(Br)cc1-c1cc(Nc2ccc(C(C)=NO)cc2)nc(N)n1` [Example 130, 1-{4-[2-Amino-6-(5-bromo-2-ethoxy-phenyl)-pyrimidin4-ylamino]-phenyl}-ethanone-oxime], the IC50 was determined as 84 nM.
For the compound `CCOc1ccc(Br)cc1-c1cc(Nc2ccc(C(=O)C(F)(F)F)cc2)nc(N)n1` [Example 131, 1-{4-[2-Amino-6-(5-bromo-2-ethoxy-phenyl)-pyrimidin-4-ylamino]-phenyl}-2,2,2-trifluoro-ethanone], the concentration for half-maximal inhibition (IC50) was found to be 12 nM.
Regarding `CCOc1ccc(Br)cc1-c1cc(Nc2ccc(C)c(C)c2)nc(N)n1` [Example 132, 6-(5-Bromo-2-ethoxy-phenyl)-N*4*-(3,4-dimethyl-phenyl)-pyrimidine-2,4-diamine], the IC50 is 140 nM.
For `CCOc1ccc(Br)cc1-c1cc(Nc2ccc([N+](=O)[O-])cc2)nc(N)n1` [Example 133, 6-(5-Bromo-2-ethoxy-phenyl)-N*4*-(4-nitro-phenyl)-pyrimidine-2,4-diamine] the value was 15 nM; for `CCOc1ccc(Br)cc1-c1cc(Nc2ccc(C(C)O)cc2)nc(N)n1` (centres unmarked) [Example 134], 110 nM; for `CCCOc1ccc(Br)cc1-c1cc(Nc2ccc(Cl)cc2)nc(N)n1` [Example 135, 6-(5-Bromo-2-propoxy-phenyl)-N*4*-(4-chloro-phenyl)-pyrimidine-2,4-diamine], 8 nM.
As for `CC(C)Oc1ccc(Br)cc1-c1cc(Nc2ccc(Cl)cc2)nc(N)n1` [Example 136, 6-(5-Bromo-2-isopropoxy-phenyl)-N*4*-(4-chloro-phenyl)-pyrimidine-2,4-diamine], the IC50 was 170 nM.
Take `CCOc1ccc(Br)cc1-c1cc(Nc2ccc(C(C)OC)cc2)nc(N)n1` (centres unmarked) [Example 137, 6-(5-Bromo-2-ethoxy-phenyl)-N*4*-[4-(1-methoxy-ethyl)-phenyl]-pyrimidin-2,4-diamine]: the IC50 is 260 nM.
As for `CCOc1ccc(Br)cc1-c1cc(Nc2cccc(C(N)=O)c2)nc(N)n1` [Example 138, 3-[2-Amino-6-(5-Bromo-2-ethoxy-phenyl)-pyrimidin-4yl-amino]-benzamide], the concentration for half-maximal inhibition (IC50) came to 950 nM.
For the compound `CC(=O)c1ccc(Nc2cc(-c3cccc(Cl)c3)nc(N)n2)cc1` [Example 139, 1-{4-[2-Amino-6-(3-chloro-phenyl)-pyrimidin-4-ylamino]-phenyl}-ethanone], the IC50 was 340 nM.
Regarding `CCOc1ccc(I)cc1-c1cc(Nc2ccc(N=[N+]=[N-])cc2)nc(N)n1` [Example 140, N*4*-{4-Azido-phenyl)-6-(2-ethoxy-5-iodo-phenyl)-pyrimidine-2,4-diamine], the concentration for half-maximal inhibition (IC50) came out at 100 nM.
For `CC(C)Oc1ccc(Br)cc1-c1cc(Nc2ccc(CCO)cc2)nc(N)n1` [Example 141, 2-{4-[2-Amino-6-(5-bromo-2-isopropoxy-phenyl)-pyrimidin-4-ylamino]-phenyl}-ethanol], the IC50 is 390 nM.
On to `COc1ccc(Br)cc1-c1cc(Nc2ccc(Cl)cc2)nc(N)n1` [Example 142, 6-(5-Bromo-2-methoxy-phenyl)-N*4*-(4-chloro-phenyl)-pyrimidine-2,4-diamine], for which the half-inhibitory concentration (IC50) amounted to 18 nM.
Take `COCCOc1ccc(Br)cc1-c1cc(Nc2ccc(Cl)cc2)nc(N)n1` [Example 143, 6-[5-Bromo-2-(2-methoxy-ethoxy)-phenyl]-N*4*-(4-chloro-phenyl)-pyrimidine-2,4-diamine]: the half-inhibitory concentration (IC50) was found to be 22 nM.
For the compound `CCOc1ccc(Br)cc1-c1cc(Nc2cnc3ccccc3c2)nc(N)n1` [Example 144, 6-(5-Bromo-2-ethoxy-phenyl)-N*4*-quinolin-3-yl-pyrimidine-2,4-diamine], the 50% inhibitory concentration (IC50) amounted to 460 nM.
For `CCCCCCOc1ccc(Br)cc1-c1cc(Nc2ccc(Cl)cc2)nc(N)n1` [Example 145, 6-(5-Bromo-2-hexyloxy-phenyl)-N*4*-(4-chloro-phenyl)-pyrimidine-2,4-diamine] the value was 5 nM; for `Nc1nc(Nc2ccc(Cl)cc2)cc(-c2cc(Br)ccc2OCc2ccccc2)n1` [Example 146, 6-(2-Benzyloxy-5-bromo-phenyl)-N*4*-(4-chloro-phenyl)-pyrimidine-2,4-diamine], 3 nM.
Regarding `CC(=NO)c1ccc(Nc2cc(-c3cc(Cl)cc(Cl)c3Cl)nc(N)n2)cc1` [Example 147, 1-{4-[2-Amino-6-(2,3,5-trichloro-phenyl)-pyrimidin-4-ylamino]-phenyl}-ethanone oxime], the IC50 came out at 390 nM.
Turning to `CCCCOc1ccc(Br)cc1-c1cc(Nc2ccc(Cl)cc2)nc(N)n1` [Example 148, 6-(5-Bromo-2-butoxy-phenyl)-N*4*-(4-chloro-phenyl)-pyrimidine-2,4-diamine], the IC50 was found to be 5 nM.
Turning to `Nc1nc(Nc2ccc(Cl)cc2)cc(-c2cc(Br)ccc2OCCN2CCOCC2)n1` [Example 149, 6-[5-Bromo-2-(2-morpholin4-yl-ethoxy)-phenyl]-N*4*-(4-chloro-phenyl)-pyrimidine-2,4-diamine], the 50% inhibitory concentration (IC50) is 71 nM.
For `COc1ccc(Br)cc1-c1cc(Nc2ccc(C(F)(F)F)cc2)nc(N)n1` [Example 150, 6-(5-Bromo-2-methoxy-phenyl)-N*4*-(4-trifluoromethyl-phenyl)-pyrimidine-2,4-diamine] the value was 100 nM.
For `COc1ccc(Br)cc1-c1cc(Nc2ccc(CCO)cc2)nc(N)n1` [Example 151, 2-{4-[2-Amino-6-(5-bromo-2-methoxy-phenyl)-pyrimidin-4-ylamino]-phenyl}-ethanol], the half-inhibitory concentration (IC50) amounted to 55 nM.
With `Nc1nc(Nc2ccc(Cl)cc2)cc(-c2ccccc2Oc2ccccc2)n1` [Example 152, N*4*-(4-Chloro-phenyl)-6-(2-phenoxy-phenyl)-pyrimidin-2,4-diamine], the half-maximal inhibitory concentration (IC50) was 240 nM.
Consider `Nc1nc(Nc2ccc(C(F)(F)F)cc2)cc(-c2cc(Br)ccc2OCc2ccccc2)n1` [Example 153, 6-(2-Benzyloxy-5-bromo-phenyl)-N*4*-(4-trifluoromethyl-phenyl)-pyrimidine-2,4-diamine], for which the 50% inhibitory concentration (IC50) was determined as 6 nM.
In the case of `CC(=NO)c1ccc(Nc2cc(-c3cc(Cl)ccc3Cl)nc(N)n2)cc1` [Example 154, 1-{4-[2-Amino-6-(2,5-dichloro-phenyl)-pyrimidin-4-yl-amino]-phenyl}-ethanone oxime], the IC50 is 98 nM.
`Nc1nc(Nc2ccc(Cl)cc2)cc(-c2cc(Cl)ccc2OCc2ccccc2)n1` [Example 155, 6-(2-Benzyloxy-5-chloro-phenyl)-N*4*-(4-chloro-phenyl)-pyrimidine-2,4-diamine]: the IC50 is 4 nM.
In the case of `CN(C)CCCOc1ccc(Br)cc1-c1cc(Nc2ccc(Cl)cc2)nc(N)n1` [Example 156, 6-[5-Bromo-2-(3-dimethylamino-propoxy)-phenyl]-N*4*-(4-chloro-phenyl)-pyrimidine-2,4-diamine], the IC50 worked out at 1400 nM.
On to `Nc1nc(Nc2ccc(CCO)cc2)cc(-c2cc(Cl)ccc2OCc2ccccc2)n1` [Example 158, 2-[4-{2-Amino-6-(2-benzyloxy-5-chloro-phenyl)-pyrimidin4-ylamino]-phenyl}-ethanol], for which the half-maximal inhibitory concentration (IC50) amounted to 16 nM.
As for `CCOc1ccc(Br)cc1-c1cc(Nc2ccc(B(O)O)cc2)nc(N)n1` [Example 159, 4-[2-Amino-6-(5-bromo-2-ethoxy-phenyl)-pyrimidin-4-ylamino]-phenyl-boronic acid], the concentration for half-maximal inhibition (IC50) stood at 200 nM.
Consider `COc1ccc(Br)cc1-c1cc(Nc2ccc(C#N)cc2)nc(N)n1` [Example 160, 4-[2-Amino-6-(5-bromo-2-methoxy-phenyl)-pyrimidin4-ylamino]-benzonitrile], for which the half-inhibitory concentration (IC50) was 38 nM.
`COc1ccc(Br)cc1-c1cc(Nc2ccc([N+](=O)[O-])cc2)nc(N)n1` [Example 161, 6-(5-Bromo-2-methoxy-phenyl)-N*4*-(4-nitro-phenyl)-pyrimidine-2,4-diamine]: the IC50 was 14 nM.
For the compound `COc1ccc(Br)cc1-c1cc(Nc2ccc(Br)cc2)nc(N)n1` [Example 162, 6-(5-Bromo-2-methoxy-phenyl)-N*4*-(4-bromo-phenyl)-pyrimidine-2,4-diamine], the IC50 was determined as 36 nM.
`CCc1ccc(Cl)cc1-c1cc(Nc2ccc(Br)cc2)nc(N)n1` [Example 163, N*4*-(4-Bromo-phenyl)-6-(5-chloro-2-ethyl-phenyl)-pyrimidine-2,4-diamine]: the IC50 came out at 310 nM.
On to `CCc1ccc(Cl)cc1-c1cc(Nc2ccc(C(F)(F)F)cc2)nc(N)n1` [Example 164, 6-(5-Chloro-2-ethyl-phenyl)-N*4*-(4-trifluoromethyl-phenyl)-pyrimidine-2,4-diamine], for which the IC50 worked out at 670 nM.
Turning to `Nc1nc(Nc2ccc(Cl)cc2)cc(-c2cc(Br)ccc2OCc2ccc(Cl)cc2)n1` [Example 165, 6-[5-Bromo-2-(4-chloro-benzyloxy)-phenyl]-N*4*-(4-chloro-phenyl)-pyrimidine-2,4-diamine], the half-maximal inhibitory concentration (IC50) came out at 3 nM.
As for `Nc1nc(Nc2ccc(Cl)cc2)cc(-c2cc(Br)ccc2OCCc2ccccc2)n1` [Example 166, 6-(5-Bromo-2-phenethyloxy-phenyl)-N*4*-(4-chloro-phenyl)-pyrimidine-2,4-diamine], the 50% inhibitory concentration (IC50) is 5 nM.
Consider `CCc1ccc(Cl)cc1-c1cc(Nc2ccc(Cl)cc2)nc(N)n1` [Example 167, 6-(5-Chloro-2-ethyl-phenyl)-N*-4*-(4-chloro-phenyl)-pyrimidine-2,4-diamine], for which the IC50 was determined as 180 nM.
For `Nc1nc(Nc2ccc(Cl)cc2)cc(-c2cc(Cl)ccc2OCC2CCCCC2)n1` [Example 168, 6-(5-Chloro-2-cyclohexylmethoxy-phenyl)-N*4*-(4-chloro-phenyl)-pyrimidine-2,4-diamine], the IC50 worked out at 16 nM.
